Data as given in US10174029B2, “Pyrimidine-2,4-diamine derivatives for treatment of cancer” (THOMAS HELLEDAYS STIFTELSE FOR MEDICINSK FORSKNING, priority 2012, dated 2019).
pIC50: −log10 of the molar value.

target: MTH1 (Homo sapiens, UniProt P36639); assay: MTH1 enzymatic assay and IC50 value determination (malachite green); assay type: biochemical; conditions: MTH1 4.8 nM, dGTP 100 μM, 15 minutes at 22° C.; group: between 2 μM and 10 μM
Description: MTH1 Enzymatic Assay and IC50 Value Determination
MTH1 catalyzes the hydrolysis of dGTP to dGMP and PPi. By coupling the reaction to pyrophosphatase added in excess PPi is converted to Pi that can be detected by using the malachite green assay reagent. Briefly, for IC50 value determination the compound to be analyzed is diluted in assay buffer in a 1:3 dilution series generating 12 different compound concentrations giving a final DMSO concentration of 1% in the assay well. MTH1 diluted in assay buffer (100 mM Tris-acetate, 40 mM NaCl, 10 mM magnesium acetate, 1 mM DTT and 0.005% Tween 20) fortified with E. coli pyrophosphatase (0.8 U/ml) is added to a final concentration of 4.8 nM. dGTP diluted in assay buffer is added to a final concentration of 100 μM. The reaction mixture is incubated with shaking for 15 minutes at 22° C. To 100 μl reaction mixture is 25 μl Malachite green assay regent (0.095% Malachite green in 17% H2SO4, 1.5% Ammonium molybdate, 0.17% Tween 20) added followed by incubation with shaking for 15 minutes at 22° C.
The absorbance of the assay plate is read at 630 nm using an EnVision Multilabel plate reader. The IC50 value is determined by fitting a dose response curve to the data points using nonlinear regression analysis and the equation Y=Bottom+(Top−Bottom)/(1+10^((Log IC50−X)*HillSlope)), where Y is the read absorbance at 630 nm and X is log [compound].

Row | pIC50 | Structure (SMILES)
1 | 5.00 to 5.70 | C[C@@H]1[C@H]2C[C@@H](C[C@H]1Nc1cc(-c3cccc(Cl)c3Cl)nc(N)n1)C2(C)C [Example 299, 6-(2,3-dichlorophenyl)-4-N-[(1R,2R,3R,5S)-2,6,6-trimethylbicyclo[3.1.1]heptan-3-yl]pyrimidine-2,4-diamine]
2 | 5.00 to 5.70 | CCCNc1cc(-c2ccc(S(C)(=O)=O)cc2)nc(N)n1 [Example 5, 6-(4-methanesulfonylphenyl)-4-N-propylpyrimidine-2,4-diamine]
3 | 5.00 to 5.70 | CCOC(=O)CNc1cc(-c2cccc(C)c2C)nc(N)n1 [Example 396, Ethyl 2-{[2-amino-6-(2,3-dimethylphenyl)pyrimidin-4-yl]amino}acetate]
4 | 5.00 to 5.70 | C[C@@H](Nc1cc(-c2cccc(Cl)c2Cl)nc(N)n1)C1CC1 [Example 179, 4-N-[(1R)-1-cyclopropylethyl]-6-(2,3-dichlorophenyl)pyrimidine-2,4-diamine]

same assay, conditions: MTH1 4.8 nM, dGTP 100 μM, 15 minutes at 22° C.; group: less than 200 nM

Row | pIC50 | Structure (SMILES)
5 | > 6.70 | CNc1cc(-c2ccc(C#N)cc2)nc(N)n1 [Example 51, 4-[2-amino-6-(methylamino)pyrimidin-4-yl]benzonitrile]
6 | > 6.70 | Cc1cccc(-c2cc(NCCCc3ccccc3)nc(N)n2)c1C [Example 131, 6-(2,3-dimethylphenyl)-4-N-(3-phenylpropyl)pyrimidine-2,4-diamine]
7 | > 6.70 | CNc1cc(-c2ccc(O)nc2)nc(N)n1 [Example 141, 5-[2-amino-6-(methylamino)pyrimidin-4-yl]pyridin-2-ol]
8 | > 6.70 | CNc1cc(-c2ccccc2Cl)nc(N)n1 [Example 77, 6-(2-chlorophenyl)-4-N-methylpyrimidine-2,4-diamine]
9 | > 6.70 | Cc1ccc(CCNc2cc(-c3cccc(C)c3C)nc(N)n2)cc1 [Example 127, 6-(2,3-dimethylphenyl)-4-N-[2-(4-methylphenyl)ethyl]pyrimidine-2,4-diamine]
10 | > 6.70 | Nc1nc(NCC2CC2)cc(-c2ccccc2)n1 [Example 6, 4-N-(cyclopropylmethyl)-6-phenylpyrimidine-2,4-diamine]
11 | > 6.70 | Cc1cccc(-c2cc(NCCCc3nc4ccccc4[nH]3)nc(N)n2)c1C [Example 409, 4-N-[3-(1H-1,3-benzodiazol-2-yl)propyl]-6-(2,3-dimethylphenyl)pyrimidine-2,4-diamine]
12 | > 6.70 | CNc1cc(-c2cc(C#N)ccc2C)nc(N)n1 [Example 211, 3-[2-amino-6-(methylamino)pyrimidin-4-yl]-4-methylbenzonitrile]
13 | > 6.70 | CNc1cc(-c2ccc(O)c(Cl)c2Cl)nc(N)n1 [Example 105, 4-[2-amino-6-(methylamino)pyrimidin-4-yl]-2,3-dichlorophenol]
14 | > 6.70 | Cc1cccc(-c2cc(NC3CC3)nc(N)n2)c1Cl [Example 227, 6-(2-chloro-3-methylphenyl)-4-N-cyclopropylpyrimidine-2,4-diamine]
15 | > 6.70 | Nc1nc(NCc2ccccc2)cc(-c2ccccc2)n1 [Example 11, 4-N-benzyl-6-phenylpyrimidine-2,4-diamine]
16 | > 6.70 | CNc1cc(-c2cccc(NC(=O)CO)c2)nc(N)n1 [Example 322, N-{3-[2-Amino-6-(methylamino)pyrimidin-4-yl]phenyl}-2-hydroxyacetamide]
17 | > 6.70 | CNc1cc(-c2cc(Cl)ccc2OC)nc(N)n1 [Example 201, 6-(5-chloro-2-methoxyphenyl)-4-N-methylpyrimidine-2,4-diamine]

Second part, the compound before the results:

Row | Structure (SMILES) | pIC50
18 | Cc1cccc(-c2cc(NCCCNS(=O)(=O)c3cn(C)c(C)n3)nc(N)n2)c1C [Example 391, N-(3-{[2-Amino-6-(2,3-dimethylphenyl)pyrimidin-4-yl]amino}propyl)-1,2-dimethyl-1H-imidazole-4-sulfonamide] | > 6.70
19 | CNc1cc(-c2cccc(C(=O)N3CCOCC3)c2)nc(N)n1 [Example 44, 4-N-methyl-6-[3-(morpholine-4-carbonyl)phenyl]pyrimidine-2,4-diamine] | > 6.70
20 | CNc1cc(-c2ccc(OC)c(C)c2C)nc(N)n1 [Example 259, 6-(4-methoxy-2,3-dimethylphenyl)-4-N-methylpyrimidine-2,4-diamine] | > 6.70
21 | Cc1ccc(S(=O)(=O)n2cc(-c3cc(NCC4CC4)nc(N)n3)c3ccccc32)cc1 [Example 165, 4-N-(cyclopropylmethyl)-6-[1-(4-methylbenzenesulfonyl)-1H-indol-3-yl]pyrimidine-2,4-diamine] | > 6.70
22 | Cc1cccc(-c2cc(NCCCNS(=O)(=O)c3cccc(C#N)c3)nc(N)n2)c1C [Example 374, N-(3-{[2-Amino-6-(2,3-dimethylphenyl)pyrimidin-4-yl]amino}propyl)-3-cyanobenzene-1-sulfonamide] | > 6.70
23 | Nc1nc(NCCc2ccc(Cl)cc2)cc(-c2ccc(Cl)c(Cl)c2Cl)n1 [Example 419, 4-N-[2-(4-Chlorophenyl)ethyl]-6-(2,3,4-trichlorophenyl)pyrimidine-2,4-diamine] | > 6.70
24 | Nc1nc(NCCc2ccc(Cl)cc2)cc(-c2cccc3[nH]ccc23)n1 [Example 231, 4-N-[2-(4-chlorophenyl)ethyl]-6-(1H-indol-4-yl)pyrimidine-2,4-diamine] | > 6.70
25 | Nc1nc(NCCc2ccc(O)cc2)cc(-c2cccc(Cl)c2Cl)n1 [Example 301, 4-(2-{[2-Amino-6-(2,3-dichlorophenyl)pyrimidin-4-yl]amino}ethyl)phenol] | > 6.70
26 | C=CS(=O)(=O)Nc1cccc(-c2cc(NC)nc(N)n2)c1 [Example 313, N-{3-[2-amino-6-(methylamino)pyrimidin-4-yl]phenyl}ethene-1-sulfonamide] | > 6.70
27 | CNc1cc(-c2ccc(CO)cc2)nc(N)n1 [Example 142, {4-[2-amino-6-(methylamino)pyrimidin-4-yl]phenyl}methanol] | > 6.70
28 | C#CCNc1cc(-c2cccc(Cl)c2C)nc(N)n1 [Example 429, 6-(3-chloro-2-methylphenyl)-4-N-(prop-2-yn-1-yl)pyrimidine-2,4-diamine] | > 6.70
29 | Nc1nc(NC23CC4CC(CC2C4)C3)cc(-c2cccc(Cl)c2Cl)n1 [Example 304, 6-(2,3-Dichlorophenyl)-4-N-{tricyclo[3.3.1.0^3,7]nonan-3-yl}pyrimidine-2,4-diamine] | > 6.70
30 | Cc1cccc(-c2cc(NCCCNC(=O)c3cccc(Br)c3)nc(N)n2)c1C [Example 367, N-(3-{[2-Amino-6-(2,3-dimethylphenyl)pyrimidin-4-yl]amino}propyl)-3-bromobenzamide] | > 6.70
31 | COc1cccc(NCCNc2cc(-c3cccc(C)c3C)nc(N)n2)c1 [Example 447, 6-(2,3-dimethylphenyl)-4-N-{2-[(3-methoxyphenyl)amino]ethyl}pyrimidine-2,4-diamine] | > 6.70
32 | CNc1cc(-c2cncc3ccccc23)nc(N)n1 [Example 35, 6-(isoquinolin-4-yl)-4-N-methylpyrimidine-2,4-diamine] | > 6.70
33 | Nc1nc(NC2CCC2)cc(-c2cccc(Cl)c2Cl)n1 [Example 64, 4-N-cyclobutyl-6-(2,3-dichlorophenyl)pyrimidine-2,4-diamine] | > 6.70
34 | COc1ccc(-c2cc(NC3CC3)nc(N)n2)cc1 [Example 18, 4-N-cyclopropyl-6-(4-methoxyphenyl)pyrimidine-2,4-diamine] | > 6.70
35 | Cc1ccc(Cl)cc1-c1cc(NC2CCC2)nc(N)n1 [Example 220, 6-(5-chloro-2-methylphenyl)-4-N-cyclobutylpyrimidine-2,4-diamine] | > 6.70
36 | CNc1cc(-c2cccc(NC(=O)C(O)c3ccccc3)c2)nc(N)n1 (stereo not shown) [Example 324, N-{3-[2-Amino-6-(methylamino)pyrimidin-4-yl]phenyl}-2-hydroxy-2-phenylacetamide] | > 6.70
37 | CNc1cc(-c2cccc(C(F)(F)F)c2F)nc(N)n1 [Example 85, 6-[2-fluoro-3-(trifluoromethyl)phenyl]-4-N-methylpyrimidine-2,4-diamine] | > 6.70
38 | CS(=O)(=O)c1ccc(CCNc2cc(-c3cccc(Cl)c3Cl)nc(N)n2)cc1 [Example 445, 6-(2,3-dichlorophenyl)-4-N-[2-(4-methanesulfonylphenyl)ethyl]pyrimidine-2,4-diamine] | > 6.70
39 | CNc1cc(-c2ccnc(OC)c2Cl)nc(N)n1 [Example 120, 6-(3-chloro-2-methoxypyridin-4-yl)-4-N-methylpyrimidine-2,4-diamine] | > 6.70
40 | Cc1cccc(-c2cc(NCCCNS(=O)(=O)c3ccc(S(N)(=O)=O)cc3)nc(N)n2)c1C [Example 444, 1-N-(3-{[2-amino-6-(2,3-dimethylphenyl)pyrimidin-4-yl]amino}propyl)benzene-1,4-disulfonamide] | > 6.70
41 | CNc1cc(-c2ccncc2Cl)nc(N)n1 [Example 149, 6-(3-chloropyridin-4-yl)-4-N-methylpyrimidine-2,4-diamine] | > 6.70
42 | CNc1cc(-c2cc(OC)ccc2OC)nc(N)n1 [Example 203, 6-(2,5-dimethoxyphenyl)-4-N-methylpyrimidine-2,4-diamine] | > 6.70
43 | Cc1c(F)ccc(-c2cc(NC3CC3)nc(N)n2)c1C [Example 436, 4-N-cyclopropyl-6-(4-fluoro-2,3-dimethylphenyl)pyrimidine-2,4-diamine] | > 6.70
